For data set [1], the system named is HeLa. In words: Antitumor activity against human HeLa cells xenografted in BALB/c nude mouse assessed as tumor growth inhibition at 20 mg/kg, ig administered for 30 days measured every 3 days during compound dosing relative to control. In kind it is functional. To be noted: po, read-out: TGI. In general terms: A xenograft is tissue or cells of one species grown in another, often human tumour cells in immunodeficient mice.

For data set [2], the system named is HCT-116. The experiment in a line: Antiproliferative activity against human HCT116 cells assessed as reduction in cell viability incubated for 72 hrs by MTT assay. The settings on record: HCT-116, 72 h. The format is functional, cell-based.
Data set [3] deals with MCF7. In words: cells. The settings on record: Homo sapiens, MCF7, 72 h.
Data set [4] is described as follows: Toxicity in BALB/c mouse xenografted with human A549 cells assessed as reduction in body weight at 20 mg/kg, ig administered for 30 days. The format is organism-based. The settings on record: in vivo, po, 720 h.
In data set [5] the test system is HeLa. The experiment in a line: Antiproliferative activity against human HeLa cells assessed as reduction in cell viability incubated for 72 hrs by MTT assay. In kind it is functional, cell-based.
Data set [6] in a line: Toxicity in BALB/c mouse xenografted with human HeLa cells assessed as reduction in body weight at 20 mg/kg, ig administered for 30 days. The format is organism-based. The settings on record: in vivo, po, 720 h.
In data set [7] the test system is HepG2. The experiment in a line: cells. To be noted: Homo sapiens, HepG2, 72 h.
The subject of data set [8] is A-375. The experiment in a line: Antiproliferative activity against human A375 cells assessed as reduction in cell viability incubated for 72 hrs by MTT assay. The settings on record: A-375, 72 h. The format is functional, cell-based. (Tetrazolium assays rely on reduction of a dye to a coloured formazan, in cell work by metabolically active cells.)
Data set [9] relates to A549. The experiment in a line: Antitumor activity against human A549 cells xenografted in BALB/c nude mouse assessed as tumor growth inhibition at 20 mg/kg, ig administered for 30 days measured every 3 days during compound dosing relative to control. The format is functional. The settings on record: A549, po, read-out: TGI.
For data set [10], the system named is A549. The experiment in a line: cells. To be noted: Homo sapiens, A549, 72 h.
Data set [11] has as its target Phosphatidylinositol 4,5-bisphosphate 3-kinase catalytic subunit alpha isoform (Homo sapiens, UniProt P42336). In words: Inhibition of recombinant human full length N-terminal GST-tagged PI3Kalpha (1 to 1068 residues)/PIK3R1 (1 to 724 residues) expressed in baculovirus expression system using PIP2 as substrate incubated for 1 hr by ADP-Glo assay. (In general: In ADP-Glo the light output rises with the ADP produced.)

The target of data set [12] is Serine/threonine-protein kinase mTOR (Homo sapiens, UniProt P42345). The experiment in a line: Inhibition of recombinant human N-terminal FLAG-tagged mTOR (1362 to end residues) using Ulight-4E-BP1 as substrate incubated for 30 mins by fluorescence assay.
In data set [13] the target is PI3-kinase p110-delta/p85-alpha (Homo sapiens, UniProt O00329). The experiment in a line: Inhibition of recombinant human full length N-terminal GST-tagged PI3Kdelta (1 to 1044 residues)/PIK3R1 (1 to 724 residues) expressed in baculovirus expression system using PIP2 as substrate incubated for 2 hrs by ADP-Glo assay.

The record followed here is ChEMBL document CHEMBL4364276, “Discovery of 4-phenyl-2H-benzo[b][1,4]oxazin-3(4H)-one derivatives as potent and orally active PI3K/mTOR dual inhibitors” (Eur J Med Chem, 2019).

Sequence of Phosphatidylinositol 4,5-bisphosphate 3-kinase catalytic subunit alpha isoform (P42336 whole entry, looked up, the tested form may be a part, canonical isoform): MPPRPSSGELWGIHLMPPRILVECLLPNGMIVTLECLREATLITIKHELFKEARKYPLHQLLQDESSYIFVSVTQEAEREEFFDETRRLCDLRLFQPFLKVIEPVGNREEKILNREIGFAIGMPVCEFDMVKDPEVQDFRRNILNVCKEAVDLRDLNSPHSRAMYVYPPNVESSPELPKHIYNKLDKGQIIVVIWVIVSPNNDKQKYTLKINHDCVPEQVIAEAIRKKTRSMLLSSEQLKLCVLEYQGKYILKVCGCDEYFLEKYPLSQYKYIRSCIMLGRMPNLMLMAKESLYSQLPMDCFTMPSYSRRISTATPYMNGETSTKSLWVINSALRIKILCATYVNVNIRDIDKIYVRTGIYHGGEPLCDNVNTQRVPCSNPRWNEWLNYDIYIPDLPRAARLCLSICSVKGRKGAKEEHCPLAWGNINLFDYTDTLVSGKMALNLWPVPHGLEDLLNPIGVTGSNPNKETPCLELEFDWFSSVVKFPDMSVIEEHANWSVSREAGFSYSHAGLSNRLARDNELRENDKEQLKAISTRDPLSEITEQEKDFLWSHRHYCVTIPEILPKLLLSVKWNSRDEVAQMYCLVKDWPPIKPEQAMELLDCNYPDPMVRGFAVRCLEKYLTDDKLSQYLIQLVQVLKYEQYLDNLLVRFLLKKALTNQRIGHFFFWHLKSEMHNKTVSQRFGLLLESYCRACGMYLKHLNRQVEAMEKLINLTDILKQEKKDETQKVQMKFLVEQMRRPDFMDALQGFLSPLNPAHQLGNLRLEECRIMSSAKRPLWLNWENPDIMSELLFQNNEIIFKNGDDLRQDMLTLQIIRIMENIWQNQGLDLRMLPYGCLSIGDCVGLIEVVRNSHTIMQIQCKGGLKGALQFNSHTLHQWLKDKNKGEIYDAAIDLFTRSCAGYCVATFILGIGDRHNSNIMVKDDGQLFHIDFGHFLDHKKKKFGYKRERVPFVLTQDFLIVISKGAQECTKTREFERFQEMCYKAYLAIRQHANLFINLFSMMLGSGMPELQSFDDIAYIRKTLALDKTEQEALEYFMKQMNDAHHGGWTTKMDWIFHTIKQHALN
Sequence of PI3-kinase p110-delta/p85-alpha (P27986 whole entry, the tested form may be a part): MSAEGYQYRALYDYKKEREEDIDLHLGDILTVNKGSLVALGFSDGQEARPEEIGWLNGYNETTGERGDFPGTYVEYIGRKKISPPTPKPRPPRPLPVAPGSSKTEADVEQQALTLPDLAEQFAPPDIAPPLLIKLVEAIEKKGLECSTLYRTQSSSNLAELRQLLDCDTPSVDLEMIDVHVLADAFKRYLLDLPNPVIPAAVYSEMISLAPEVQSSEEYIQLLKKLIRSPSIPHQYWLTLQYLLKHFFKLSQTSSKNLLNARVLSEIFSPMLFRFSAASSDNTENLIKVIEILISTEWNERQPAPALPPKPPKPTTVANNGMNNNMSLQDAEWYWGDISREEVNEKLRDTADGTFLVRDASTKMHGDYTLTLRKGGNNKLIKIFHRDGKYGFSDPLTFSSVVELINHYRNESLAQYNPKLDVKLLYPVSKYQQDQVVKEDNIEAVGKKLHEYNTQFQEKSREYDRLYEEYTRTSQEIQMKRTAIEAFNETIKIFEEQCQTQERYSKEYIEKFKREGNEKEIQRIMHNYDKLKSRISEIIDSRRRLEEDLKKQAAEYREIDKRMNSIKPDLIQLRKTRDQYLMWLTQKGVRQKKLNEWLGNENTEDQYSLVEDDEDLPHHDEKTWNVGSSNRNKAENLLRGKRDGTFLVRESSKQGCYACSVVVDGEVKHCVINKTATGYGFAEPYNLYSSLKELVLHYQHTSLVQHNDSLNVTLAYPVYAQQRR
Sequence of PI3-kinase p110-delta/p85-alpha (O00329 whole entry, the tested form may be a part): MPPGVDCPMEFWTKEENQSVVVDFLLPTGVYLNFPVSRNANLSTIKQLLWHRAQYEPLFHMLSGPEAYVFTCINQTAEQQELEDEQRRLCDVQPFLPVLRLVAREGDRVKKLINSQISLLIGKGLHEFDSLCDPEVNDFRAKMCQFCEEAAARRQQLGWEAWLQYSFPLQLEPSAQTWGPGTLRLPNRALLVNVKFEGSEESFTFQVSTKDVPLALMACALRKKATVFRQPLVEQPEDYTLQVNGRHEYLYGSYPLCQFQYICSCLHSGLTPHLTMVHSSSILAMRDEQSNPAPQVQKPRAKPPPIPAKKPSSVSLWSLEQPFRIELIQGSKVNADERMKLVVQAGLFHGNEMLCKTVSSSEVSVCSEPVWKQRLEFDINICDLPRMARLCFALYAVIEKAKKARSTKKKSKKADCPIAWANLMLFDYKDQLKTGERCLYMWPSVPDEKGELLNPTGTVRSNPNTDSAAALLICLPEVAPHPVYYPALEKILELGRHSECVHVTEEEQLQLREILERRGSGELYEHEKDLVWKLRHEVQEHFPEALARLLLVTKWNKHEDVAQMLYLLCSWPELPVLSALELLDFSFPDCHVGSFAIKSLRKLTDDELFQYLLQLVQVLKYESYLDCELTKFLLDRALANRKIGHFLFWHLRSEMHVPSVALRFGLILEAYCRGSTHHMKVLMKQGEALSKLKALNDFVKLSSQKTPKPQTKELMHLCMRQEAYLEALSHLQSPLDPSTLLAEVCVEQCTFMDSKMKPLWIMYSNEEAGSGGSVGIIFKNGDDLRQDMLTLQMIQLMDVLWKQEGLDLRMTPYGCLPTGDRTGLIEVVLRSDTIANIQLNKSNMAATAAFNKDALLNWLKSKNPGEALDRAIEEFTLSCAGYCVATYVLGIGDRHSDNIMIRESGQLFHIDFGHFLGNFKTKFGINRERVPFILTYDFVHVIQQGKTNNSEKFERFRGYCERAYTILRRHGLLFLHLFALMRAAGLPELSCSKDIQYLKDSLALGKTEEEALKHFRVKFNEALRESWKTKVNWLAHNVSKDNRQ

For the molecule `Cn1c(=O)n(-c2ccc(C(C)(C)C#N)cc2)c2c3cc(-c4cnc5ccccc5c4)ccc3ncc21` [DACTOLISIB], the results for the inhibition in vivo at 20 mg/kg in data set [1] and in data set [9] were 66.5% and 56.1%, respectively. Moreover, the IC50 (commonly the concentration at which inhibition is half-maximal) worked out at 1.7 µM in data set [2]; 0.45 µM in data set [3]; 1.17 µM in data set [5]; 4.04 µM in data set [7]; 0.58 µM in data set [8]; 1.08 µM in data set [10]. For the same molecule, the Activity result in data set [4] and in [6] was “Toxic” throughout.
On to `CC(C)N1C(=O)COc2ccc(-c3ccc(O)cc3)cc21`, for which the IC50 in data set [11] was greater than 1 µM; in [2], greater than 40 µM; in data set [3], greater than 40 µM; in data set [12], greater than 1 µM; in data set [5], greater than 40 µM; in [7], greater than 40 µM. Moreover, the values for the IC50 in data set [8], in [10] and in [13] were greater than 40 µM, greater than 40 µM and greater than 1 µM, respectively.
As to `O=C1COc2ccc(-c3ccc(O)cc3)cc2N1C1CCCCC1`, the IC50 in [11] is greater than 10 µM; in [2], greater than 40 µM; in [3], greater than 40 µM; in data set [12], greater than 1 µM; in data set [5], greater than 40 µM; in [7], greater than 40 µM. In addition, the values for the IC50 in data set [8], in [10] and in data set [13] were greater than 40 µM, greater than 40 µM and greater than 1 µM, respectively.
Consider `COc1cccc(N2C(=O)COc3ccc(-c4cnc5ccccc5c4)cc32)c1`, for which the 50% inhibitory concentration (IC50) in data set [11] is greater than 1 µM; in data set [2] it was 8.24 µM; in [3], greater than 40 µM; in data set [12], greater than 1 µM; in [5], 11.3 µM; in data set [7] it was 2.08 µM. Moreover, the IC50 in data set [8] was 23.6 µM; in [10], greater than 40 µM; in data set [13], greater than 1 µM.
In the case of `O=C1COc2ccc(-c3ccc(O)cc3)cc2N1c1ccc(Cl)cc1`, the IC50 in data set [11] was greater than 1 µM; in data set [2] it was 39.6 µM; in data set [3], greater than 40 µM; in [12], greater than 1 µM; in data set [5], greater than 40 µM; in data set [7] it was greater than 40 µM. For the same molecule, the IC50 is greater than 40 µM in [8], greater than 40 µM in data set [10] and greater than 1 µM in data set [13].
For `O=C1COc2ccc(-c3cccc(NS(=O)(=O)c4ccc(F)cc4)c3)cc2N1c1ccccc1`, the half-inhibitory concentration (IC50) in data set [11] was greater than 1 µM; in data set [2], greater than 40 µM; in data set [3], greater than 40 µM; in data set [12] it was greater than 1 µM; in [5], 17.7 µM; in data set [7], 30.3 µM. Also, the values for the IC50 in data set [8], in [10] and in data set [13] were greater than 40 µM, greater than 40 µM and greater than 1 µM, respectively.
In the case of `O=C1COc2ccc(-c3cnc(Cl)c(NS(=O)(=O)c4ccc(F)cc4)c3)cc2N1C1CCCCC1`, the 50% inhibitory concentration (IC50) in [11] was 0.112 µM; in data set [2] it was greater than 40 µM; in data set [3], greater than 40 µM; in [12], 0.29 µM; in data set [5], 14.3 µM; in data set [7] it was greater than 40 µM. For the same molecule, the 50% inhibitory concentration (IC50) in [8] was greater than 40 µM; in [10], 37.9 µM; in data set [13], 0.079 µM.
Regarding `COc1ncc(-c2ccc3c(c2)NC(=O)CO3)cc1NS(=O)(=O)c1ccc(F)cc1`, the IC50 came out at 0.5 µM in data set [11]; 24.9 µM in [2]; 32.3 µM in data set [3]; 0.635 µM in data set [12]; 7.11 µM in data set [5]; 6.59 µM in [7]. For the same molecule, the IC50 in data set [8] stood at 26.3 µM; in data set [10], 8.07 µM; in data set [13], 0.3 µM.
Regarding `O=C1COc2ccc(-c3cccc(NS(=O)(=O)c4ccc(F)cc4)c3)cc2N1C1CC1`, the half-inhibitory concentration (IC50) was greater than 1 µM in data set [11]; greater than 40 µM in data set [2]; greater than 40 µM in data set [3]; greater than 1 µM in [12]; greater than 40 µM in data set [5]; greater than 40 µM in [7]. Also, the IC50 in data set [8] was greater than 40 µM; in data set [10] it was greater than 40 µM; in data set [13], greater than 1 µM.
In the case of `O=C1COc2ccc(-c3cnc4ccccc4c3)cc2N1`, the IC50 was greater than 1 µM in data set [11]; greater than 40 µM in data set [2]; greater than 40 µM in [3]; greater than 1 µM in data set [12]; greater than 40 µM in data set [5]; 26.3 µM in data set [7]. Besides, the half-maximal inhibitory concentration (IC50) was greater than 40 µM in data set [8], greater than 40 µM in data set [10] and greater than 1 µM in data set [13].
For the molecule `COc1ncc(-c2ccc3c(c2)N(C2CC2)C(=O)CO3)cc1NS(=O)(=O)c1ccc(F)cc1`, the concentration for half-maximal inhibition (IC50) worked out at 0.131 µM in data set [11]; 24.3 µM in data set [2]; 35.2 µM in data set [3]; 0.253 µM in data set [12]; 6.03 µM in data set [5]; 14.4 µM in data set [7]. The IC50 came out at 23.9 µM in data set [8], 3.32 µM in data set [10] and 0.162 µM in [13].
